Assay results taken from patent US12371464B2, “Polypeptides and uses thereof” (MEDIMMUNE LIMITED, priority 2020, dated 2025).
Numbered stars: 1 amine (or outer) side, 2 acyl side, 3 side chain; on linkers, the order of the positions; unused ones are H or OH. Bridge positions count the residues as written; N and C are the ends. Square brackets hold non-standard residues; d marks the D form. Side chains are listed from the residue outwards. Peptide text beside a SMILES is read from it. * marks the point of attachment. C20 diacid = O=C(O)CCCCCCCCCCCCCCCCCCC(=O)*; C18 diacid = O=C(O)CCCCCCCCCCCCCCCCC(=O)*; γGlu = O=C(O)[C@H](CCC(=O)[*:2])N[*:1]; αMeF = C[C@](N)(Cc1ccccc1)C(=O)O; AEEA = NCCOCCOCC(=O)O; Aib = CC(C)(N)C(=O)O

Experiment: Thioflavin T fibrillation assay
Format: physicochemical
Details: for Time taken to detect increase in fluorescence intensity: 1 mg/mL in 25 mM sodium acetate buffer pH 4.0, 37° C., 6 days, orbital shaking, >144 h = no increase; for fibril-forming tendency on conjugating pramlintide to a lipid: as seen in Table 7
Method in brief: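 Peptides at 1 mg/mL in 25 mM sodium acetate pH 4.0 were mixed with ThT (0.25 mM stock) and held 6 days at 37 °C with intermittent orbital shaking at 500–750 rpm. Fluorescence (ex 444/em 480 nm) was read every 30 min, with buffer baseline correction and 5 replicates. Value: mean time to a detectable fluorescence increase.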

Time taken to detect increase in fluorescence intensity [h] | fibril-forming tendency on conjugating pramlintide to a lipid | Structure (SMILES)
<5 | increases the fibril-forming tendency | CC[C@H](C)[C@H](NC(=O)[C@@H]1CCCN1C(=O)CNC(=O)[C@H](Cc1ccccc1)NC(=O)[C@H](CC(N)=O)NC(=O)[C@H](CC(N)=O)NC(=O)[C@H](CO)NC(=O)[C@H](CO)NC(=O)[C@H](Cc1c[nH]cn1)NC(=O)[C@@H](NC(=O)[C@H](CC(C)C)NC(=O)[C@H](Cc1ccccc1)NC(=O)[C@H](CC(N)=O)NC(=O)[C@H](C)NC(=O)[C@H](CC(C)C)NC(=O)[C@H](CCCNC(=N)N)NC(=O)[C@H](CCC(N)=O)NC(=O)[C@@H](NC(=O)[C@H](C)NC(=O)[C@@H]1CSSC[C@H](NC(=O)[C@H](CCCCN)NC(=O)COCCOCCNC(=O)COCCOCCNC(=O)CC[C@H](NC(=O)CCCCCCCCCCCCCCCCCCC(=O)O)C(=O)O)C(=O)N[C@@H](CC(N)=O)C(=O)N[C@@H]([C@@H](C)O)C(=O)N[C@@H](C)C(=O)N[C@@H]([C@@H](C)O)C(=O)N1)[C@@H](C)O)C(C)C)C(=O)N[C@@H](CC(C)C)C(=O)N1CCC[C@H]1C(=O)N1CCC[C@H]1C(=O)N[C@H](C(=O)N[C@@H](CC(N)=O)C(=O)N[C@H](C(=O)NCC(=O)N[C@@H](CO)C(=O)N[C@@H](CC(N)=O)C(=O)N[C@H](C(=O)N[C@@H](Cc1ccc(O)cc1)C(N)=O)[C@@H](C)O)C(C)C)[C@@H](C)O [Peptide 113] ({C20 diacid-γGlu-AEEA-AEEA}-KCNTATCATQRLANFLVHSSNNFGPILPPTNVGSNTY-NH2; disulfide 2-7)
<5 | – | CC[C@H](C)[C@H](NC(=O)[C@@H]1CCCN1C(=O)CNC(=O)[C@H](Cc1ccccc1)NC(=O)[C@H](CC(N)=O)NC(=O)[C@H](CC(N)=O)NC(=O)[C@H](CO)NC(=O)[C@H](CO)NC(=O)[C@H](Cc1c[nH]cn1)NC(=O)[C@@H](NC(=O)[C@H](CC(C)C)NC(=O)[C@H](Cc1ccccc1)NC(=O)[C@H](CC(N)=O)NC(=O)[C@H](C)NC(=O)[C@H](CC(C)C)NC(=O)[C@H](CCCNC(=N)N)NC(=O)[C@H](CCC(N)=O)NC(=O)[C@@H](NC(=O)[C@H](C)NC(=O)[C@@H]1CSSC[C@H](NC(=O)[C@@H](N)CCCCNC(=O)CC[C@H](NC(=O)CCCCCCCCCCCCCCCCC(=O)O)C(=O)O)C(=O)N[C@@H](CC(N)=O)C(=O)N[C@@H]([C@@H](C)O)C(=O)N[C@@H](C)C(=O)N[C@@H]([C@@H](C)O)C(=O)N1)[C@@H](C)O)C(C)C)C(=O)N[C@H](CC(C)C)C(=O)N1CCC[C@H]1C(=O)N1CCC[C@H]1C(=O)N[C@H](C(=O)N[C@@H](CC(N)=O)C(=O)N[C@H](C(=O)NCC(=O)N[C@@H](CO)C(=O)N[C@@H](CC(N)=O)C(=O)N[C@H](C(=O)N[C@@H](Cc1ccc(O)cc1)C(N)=O)[C@@H](C)O)C(C)C)[C@@H](C)O [Peptide 103, K(γE-C18diacid)[CNTATC]ATQRLANFLVHSSNNFGPI(dL)PPTNVGSNTY-amide] (H-K([γGlu-C18 diacid])CNTATCATQRLANFLVHSSNNFGPI[dL]PPTNVGSNTY-NH2; disulfide 2-7; N-terminus assumed)

The remaining lines, values behind:

Structure (SMILES) | Time taken to detect increase in fluorescence intensity [h] | fibril-forming tendency on conjugating pramlintide to a lipid
CC[C@H](C)[C@H](NC(=O)[C@@H]1CCCN1C(=O)CNC(=O)[C@H](Cc1ccccc1)NC(=O)[C@H](CC(N)=O)NC(=O)[C@H](CC(N)=O)NC(=O)[C@H](CO)NC(=O)[C@H](CO)NC(=O)[C@H](Cc1c[nH]cn1)NC(=O)[C@@H](NC(=O)[C@H](CC(C)C)NC(=O)[C@H](Cc1ccccc1)NC(=O)[C@H](CC(N)=O)NC(=O)[C@H](C)NC(=O)[C@H](CC(C)C)NC(=O)[C@H](CCCNC(=N)N)NC(=O)[C@H](CCC(N)=O)NC(=O)[C@@H](NC(=O)[C@H](C)NC(=O)[C@@H]1CSSC[C@H](NC(=O)[C@H](CCCCN)NC(=O)CNC(=O)CNC(=O)CNC(=O)CC[C@H](NC(=O)CC[C@H](NC(=O)CCCCCCCCCCCCCCCCC(=O)O)C(=O)O)C(=O)O)C(=O)N[C@@H](CC(N)=O)C(=O)N[C@@H]([C@@H](C)O)C(=O)N[C@@H](C)C(=O)N[C@@H]([C@@H](C)O)C(=O)N1)[C@@H](C)O)C(C)C)C(=O)N[C@@H](CC(C)C)C(=O)N1CCC[C@H]1C(=O)N1CCC[C@H]1C(=O)N[C@H](C(=O)N[C@@H](CC(N)=O)C(=O)N[C@H](C(=O)NCC(=O)N[C@@H](CO)C(=O)N[C@@H](CC(N)=O)C(=O)N[C@H](C(=O)N[C@@H](Cc1ccc(O)cc1)C(N)=O)[C@@H](C)O)C(C)C)[C@@H](C)O [Peptide 4] ({C18 diacid-γGlu-γGlu}-GGGKCNTATCATQRLANFLVHSSNNFGPILPPTNVGSNTY-NH2; disulfide 5-10) | <5 | increases the fibril-forming tendency
CC[C@H](C)[C@H](NC(=O)[C@@H]1CCCN1C(=O)CNC(=O)[C@H](Cc1ccccc1)NC(=O)[C@H](CC(N)=O)NC(=O)C(C)(C)NC(=O)[C@H](CO)NC(=O)[C@H](CO)NC(=O)[C@H](Cc1c[nH]cn1)NC(=O)[C@H](CCCNC(=N)N)NC(=O)[C@H](CC(C)C)NC(=O)[C@H](Cc1ccccc1)NC(=O)[C@H](CC(N)=O)NC(=O)[C@H](C)NC(=O)[C@H](CC(C)C)NC(=O)[C@H](CCCNC(=N)N)NC(=O)[C@H](CCC(N)=O)NC(=O)[C@@H](NC(=O)[C@H](C)NC(=O)[C@@H]1CSSC[C@H](NC(=O)[C@H](CCCCN)NC(=O)[C@@H](N)CCCCNC(=O)CC[C@H](NC(=O)CC[C@H](NC(=O)CCCCCCCCCCCCCCCCC(=O)O)C(=O)O)C(=O)O)C(=O)N[C@@H](CC(N)=O)C(=O)N[C@@H]([C@@H](C)O)C(=O)N[C@@H](C)C(=O)N[C@@H]([C@@H](C)O)C(=O)N1)[C@@H](C)O)C(=O)N[C@@H](CC(C)C)C(=O)N1CCC[C@H]1C(=O)N1CCC[C@H]1C(=O)N[C@H](C(=O)N[C@@H](CC(N)=O)C(=O)N[C@H](C(=O)NCC(=O)N[C@@H](CO)C(=O)N[C@@H](CC(N)=O)C(=O)N[C@H](C(=O)N[C@@H](Cc1ccc(O)cc1)C(N)=O)[C@@H](C)O)C(C)C)[C@@H](C)O [Peptide 66, K(γE-γE-C18diacid)K[CNTATC]ATQRLANFLRHSS(Aib)NFGPILPPTNVGSNTY-amide] (H-K([γGlu-γGlu-C18 diacid])KCNTATCATQRLANFLRHSS[Aib]NFGPILPPTNVGSNTY-NH2; disulfide 3-8; N-terminus assumed) | >144 | –
CC[C@H](C)[C@H](NC(=O)[C@@H]1CCCN1C(=O)CNC(=O)[C@](C)(Cc1ccccc1)NC(=O)[C@H](CC(N)=O)NC(=O)[C@H](CC(N)=O)NC(=O)[C@H](CO)NC(=O)[C@H](CO)NC(=O)[C@H](Cc1c[nH]cn1)NC(=O)[C@H](CCCNC(=N)N)NC(=O)[C@H](CC(C)C)NC(=O)[C@H](Cc1ccccc1)NC(=O)[C@H](CC(N)=O)NC(=O)[C@H](C)NC(=O)[C@H](CC(C)C)NC(=O)[C@H](CCCNC(=N)N)NC(=O)[C@H](CCC(N)=O)NC(=O)[C@@H](NC(=O)[C@H](C)NC(=O)[C@@H]1CSSC[C@H](NC(=O)[C@@H](N)CCCCNC(=O)CC[C@H](NC(=O)CCCCCCCCCCCCCCCCC(=O)O)C(=O)O)C(=O)N[C@@H](CC(N)=O)C(=O)N[C@@H]([C@@H](C)O)C(=O)N[C@@H](C)C(=O)N[C@@H]([C@@H](C)O)C(=O)N1)[C@@H](C)O)C(=O)N[C@@H](CC(C)C)C(=O)N1CCC[C@H]1C(=O)N1CCC[C@H]1C(=O)N[C@H](C(=O)N[C@@H](CC(N)=O)C(=O)N[C@H](C(=O)NCC(=O)N[C@@H](CO)C(=O)N[C@@H](CC(N)=O)C(=O)N[C@H](C(=O)N[C@@H](Cc1ccc(O)cc1)C(N)=O)[C@@H](C)O)C(C)C)[C@@H](C)O [Peptide 19, K(γE-C18diacid)[CNTATC]ATQRLANFLRHSSNN(αMePhe)GPILPPTNVGSNTY-amide] (H-K([γGlu-C18 diacid])CNTATCATQRLANFLRHSSNN[αMeF]GPILPPTNVGSNTY-NH2; disulfide 2-7; N-terminus assumed) | >144 | –
CC[C@H](C)[C@H](NC(=O)[C@@H]1CCCN1C(=O)CNC(=O)[C@](C)(Cc1ccccc1)NC(=O)[C@H](CC(N)=O)NC(=O)[C@H](CC(N)=O)NC(=O)[C@H](CO)NC(=O)[C@H](CO)NC(=O)[C@H](Cc1c[nH]cn1)NC(=O)[C@H](CCCNC(=N)N)NC(=O)[C@H](CC(C)C)NC(=O)[C@H](Cc1ccccc1)NC(=O)[C@H](CC(N)=O)NC(=O)[C@H](C)NC(=O)[C@H](CC(C)C)NC(=O)[C@H](CCCNC(=N)N)NC(=O)[C@H](CCC(N)=O)NC(=O)[C@@H](NC(=O)[C@H](C)NC(=O)[C@@H]1CSSC[C@H](NC(=O)[C@@H](N)CCCCNC(=O)CC[C@H](NC(=O)CC[C@H](NC(=O)CCCCCCCCCCCCCCCCC(=O)O)C(=O)O)C(=O)O)C(=O)N[C@@H](CC(N)=O)C(=O)N[C@@H]([C@@H](C)O)C(=O)N[C@@H](C)C(=O)N[C@@H]([C@@H](C)O)C(=O)N1)[C@@H](C)O)C(=O)N[C@@H](CC(C)C)C(=O)N1CCC[C@H]1C(=O)N1CCC[C@H]1C(=O)N[C@H](C(=O)N[C@@H](CCC(=O)O)C(=O)N[C@H](C(=O)NCC(=O)N[C@@H](CO)C(=O)N[C@@H](CC(N)=O)C(=O)N[C@H](C(=O)N[C@@H](Cc1ccc(O)cc1)C(N)=O)[C@@H](C)O)C(C)C)[C@@H](C)O [Peptide 18, K(γE-γE-C18diacid)[CNTATC]ATQRLANFLRHSSNN(αMePhe)GPILPPTEVGSNTY-amide] (H-K([γGlu-γGlu-C18 diacid])CNTATCATQRLANFLRHSSNN[αMeF]GPILPPTEVGSNTY-NH2; disulfide 2-7; N-terminus assumed) | >144 | –
